Measured values as given in patent publication US8206756B2, “Herbal composition for inflammatory disorders” (Piramal Life Sciences Limited, priority 2005, dated 2012).

How the values were obtained:
[1] = test system: THP-1 cell adhesion to HUVECs; experiment: Adhesion of THP-1 mononuclear cells to HUVEC monolayers; format: cell-based, human; conditions: for Fluorescence Intensity: TNF-α 1 ng/ml; for Fold of control: unstimulated DMSO control = 1, stimulated = 18
Procedure: Adhesion studies were performed with the promonocytic cell line THP-1, which has been established as a useful model for monocytes in adhesion studies in Circ. Res., 97, 236-243, 2005, with modifications. THP-1 cells were washed twice with labeling medium (M200 plus LSGS). THP-1 cells (6×10^5 cells per ml) were labeled with 10 μg/ml bis-carboxyethyl-carboxyfluorescein acetoxymethylester (a fluorescent probe, BCECF-AM; Sigma) for 30 min at RT. After quenching with 0.1% BSA, the pellet was resuspended in labeling medium. To evaluate monocyte adhesion, HUVEC monolayers treated with TNF-α (1 ng/ml) in the presence or absence of various concentrations of test sample. The media was removed, washed and labeled-THP-1-cells were added to the wells (6×10^4 cells per well) and incubated for 10 minutes at RT in the dark. After co incubation, the wells were washed, filled with lysis buffer (0.1% Triton-X in 1.5 M Tris buffer) and incubated for 30 min. The fluorescence was measured using a fluorescent reader (PolarStar Optima, BMG Labtech) at an excitation peak of 485 nm and an emission peak of 520 nm. Values are means±SEM, representing fluorescent adhesion data. BAY 11-7082 [(E)-3-(4-methylphenylsulfonyl)-2-propenenitrile] was used as a standard and DMSO as vehicle control.

[2] = test system: atherosclerosis / hyperlipidemia; experiment: Atherosclerosis model of high fat-fed hyperlipidemic hamsters; format: in vivo, Golden Syrian Hamsters; conditions: Fenofibrate 100 mpk, extract 200 mpk
Procedure: The treatment effects of the extract of example 1 on prevention of aortic lesion were determined by using atherosclerosis model of high fat-fed hyperlipidemic hamster.
Details of animals used: Male Golden Syrian Hamsters, which were 7-8 weeks old and weighed approximately 100 g to 120 g, were used for the experiment. Hamsters were randomly selected for treatment group placement. Animals were earmarked using a paint marker. Animals were separated and housed in groups of three in appropriately sized solid-bottom cages. Room lighting conditions were adjusted to 12 hour light and 12 hour dark cycle. During the acclimation period the diet was Purina 5001 (Research Diets, Inc. New Brunswick, N.J., USA). A high-fat diet consisting of Purina 5001 plus 10% coconut oil, 10% corn oil, 0.5% cholesterol, and 5% fructose was administered beginning on day 1 and continued throughout the duration of study. Hamsters were provided purified tap water throughout the study.
For pretreatment lipid values, animals were bled by retro-orbital puncture following an 18-hour fast and ˜1 ml of blood was collected in a 3 ml Vacutainer® tube containing K3 EDTA. Each blood sample was centrifuged (4000 rpm, 20 min, 4° C. using an Eppendorf C5804R) and the plasma separated and was analyzed for determination of triglyceride (TG), total cholesterol, high density cholesterol (HDL) and low density cholesterol (LDL).
Preparation of dosing solution: The extract of example 1 was dissolved in vehicle [CMC (0.5%)/Tween 80 (2%)] for 200 mpk (5 ml/kg BW) dosing. The resulting solution was a fine suspension after 12-15 minutes gentle sonication. Aliquots were prepared (˜2.3 ml/vial) and stored in a freezer and were used daily.
All groups of animals were dosed orally either with vehicle or with extract of example 1 (200 mpk) for 58 days. […]
On day 58, following the 16-18 hour fasting period, animals were bled by retro-orbital puncture and ˜1 ml of blood was collected in a 3 ml Vacutainer® tube containing K3 EDTA. Each blood sample was centrifuged (4000 rpm, 20 min, 4° C. using an Eppendorf C5804R) and the plasma sample was analyzed for TG, total cholesterol, HDL and LDL.
Necropsy: On day 59, the animals were fasted for 4 h and euthanized under carbon dioxide and plasma samples were collected via cardiac puncture for lipid profiling and other analyses. […] The heart, aortic arch, thoracic and abdominal aorta up to femoral bifurcation were removed and placed in 10% formalin for en face lesion quantification.
En face analysis: Connective fascia and adventia surrounding the thoracic aorta were removed as much as possible. […] Quantitation was performed using a Nikon SMZ-U microscope with an Optronics Camera head recording the photographs. […] Quantitation was done based on percentage lesion per area.

TNF-α = experiment: LPS-induced TNF-α production in hPBMCs (ELISA); format: cell-based; conditions: Homo sapiens, LPS 1 μg/ml, 5 h, hPBMC
Procedure: (§1) Primary screening—Human peripheral blood mononuclear cells (hPBMCs). TNF-α production by lipopolysaccharides (LPS) in hPBMCs was measured according to the method described by Jansky, L. et al (Physiol. Res. 52: 593-598, (2003)). Blood was collected from healthy donors into Potassium EDTA vacutainer tubes (BD vacutainer). The PBMCs were isolated using gradient centrifugation in Histopaque-1077 solution (Sigma). Isolated PBMCs were suspended in RPMI 1640 culture medium (Gibco BRL, Pasley, UK) containing 10% fetal bovine serum (FBS) (Hyclone, Utah, USA), 100 U/ml penicillin (Sigma Chemical Co. St Louis, Mo.) and 100 μg/ml streptomycin (Sigma Chemical Co. St Louis, Mo.). The cell concentration was adjusted to 1×10^6 cells/ml. The viability as determined by trypan blue dye exclusion was uniformly ≧98%. The cell suspension (100 μl) was added to the wells of a 96-well culture plate. Following cell plating, 79 μl of the culture medium and 1 μl of eight different concentrations of the test samples (final concentration 0.03, 0.1, 0.3, 1, 3, 10, 30, 100 μg/ml) dissolved in DMSO (dimethylsulfoxide, Sigma, Mo., USA) were added to the cells. The final concentration of DMSO was adjusted to 0.5%. The vehicle (0.5% DMSO) was used as control. Rolipram (100, 300 μM) was used as a standard. The plates were incubated for 30 min at 37° C. in an atmosphere of 5% CO2. Finally, 20 μl (10 μg/ml) per well of LPS, (Escherchia coli 0127:B8, Sigma Chemical Co., St. Louis, Mo.) was added, for a final concentration of 1 μg/ml. […] The % inhibition was recorded. Percent cytotoxicity of the test samples compared to control was evaluated.
The effect of the plant extract on the proinflammatory cytokines: TNF-α, interleukin-1β (IL-1β), interleukin-6 (IL-6) and interleukin-8 (IL-8) was measured using the supernatants generated in the primary screening assay. […]
The effect of the Compound 1, on the proinflammatory cytokines: TNF-α interleukin-1β (IL-1β), interleukin-6 (IL-6) and interleukin-8 (IL-8) was measured using the supernatants generated in the primary screening assay. […]

hPBMCs = experiment: Cellular viability test (MTS) in hPBMCs; format: cell-based, human; conditions: hPBMC
Procedure: as §1, with “standard.” for “standard. The plates were incubated for 30 min at 37° C. in an atmosphere of 5% CO2. Finally, 20 μl (10 μg/ml) per well of LPS, (Escherchia coli 0127:B8, Sigma Chemical Co., St. Louis, Mo.) was added, for a final concentration of 1 μg/ml.”

DSS-induced colitis = experiment: DSS-induced murine model of acute colitis; format: in vivo, C57BL/6J mice; conditions: 15 mg/kg injected from day 5 onwards till death

Molecule: Cc1ccc(S(=O)(=O)/C=C/C#N)cc1 [BAY 11-7082, (E)-3-(4-methylphenylsulfonyl)-2-propenenitrile, reference compound]
- Fluorescence Intensity ([1]; 0.5 μM): 18442
- Fold of control ([1]; 0.5 μM): 10
- Fluorescence Intensity ([1]; 1 μM): 14271
- Fold of control ([1]; 1 μM): 8

Molecule: CC(C)OC(=O)C(C)(C)Oc1ccc(C(=O)c2ccc(Cl)cc2)cc1 [Fenofibrate]
- Plasma triglycerides level, Mean ([2]; day 58, oral, vehicle mean 2321.3): 449.2
- Plasma triglycerides level, % Change ([2]; day 58, versus vehicle): −81%
- Atherosclerosis progression (percentage lesion per area, en face aorta), Mean ([2]; day 59, vehicle mean 0.5025): 0.0834
- Atherosclerosis progression, % Change ([2]; versus vehicle): −84%

Molecule: COc1ccc(C2CNC(=O)C2)cc1OC1CCCC1 (stereo not shown) [Rolipram]
- inhibition at 100 µM (TNF-α; 100 μM): 84%
- inhibition at 300 µM (TNF-α; 300 μM): 90%
- % Toxicity at 5 h (hPBMCs; 100 μM): 2%
- % Toxicity at 5 h (hPBMCs; 300 μM): 21%

Molecule: infliximab: Monoclonal antibody drug (Centocor), injected 15 mg/kg in the DSS colitis model
- Survival against DSS-induced colitic death (DSS-induced colitis): all animals in this group were dead
